# According to US20210361570A1, “IN SITU GELLING POLYSACCHARIDE-BASED NANOPARTICLE HYDROGEL COMPOSITIONS, AND METHODS OF USE THEREOF” (McMaster University, priority 2020, published 2021):
# How the values were obtained:
# [1] = L-DOPA anti-oxidation in hydrogels (visual colour); assay type: physicochemical; conditions: 3 mg L-DOPA, MES pH 6 or PBS pH 7.4, 12 h at 37° C.
# Description: 200 μL of 25 w/v % (DS 0.5) SNP-CHO or SNP-APBA was combined with 200 μL of CMCh (pH 7) to form a 400 μL bulk hydrogel in a 12 plate well. Gels were loaded with 3 mg of L-DOPA by suspending the powered drug into the aqueous SNP precursor before gelling. The gels were submerged in 3 mL of 0.1M MES (pH 6) buffer or 10 mM PBS (pH 7.4) buffer. Oxidation of L-DOPA was assessed visually, with the formation of dark yellow-brown and black precipitates indicating L-DOPA oxidation to its dopaquinone and dopachrome polymer forms, and assessed with respect to controls of L-DOPA at the same concentration in each of the respective buffers (without a hydrogel).
# C. elegans = test: 6-OHDA Parkinsonian model, electrotaxis movement testing; assay type: in vivo; conditions: L-DOPA free or loaded in 25 w/v % hydrogels (DS=0.5)
# Description: The stability of L-DOPA delivered using the SNP-CHO@CMCh or SNP-APBA@CMCh bulk hydrogels was assessed using an in vivo C. elegans assay. Wild-type late larval stage worms were exposed to 30 mM 6-OHDA in ascorbic acid for 1 hr to induce dopaminergic neurodegeneration. After 24 hours, worms were added to a 12-well plate in which each well contains 400 μL of SNP-CHO@CMCh or SNP-APBA@CMCh bulk hydrogel as well as E. coli (for food) to form a 3 mL liquid culture in which worms are continuously exposed to released L-DOPA.
# Worms were sampled at various time points (0 h, 4 h, 8 h, 12 h, 24 h, 48 h) to assess movement. Motility changes, assessed based on the average speed of the worms in mm/s (minimum n=20 worms per sample and time point tested), were measured using an in-house voltage-induced electrotaxis microfluidic assay developed to quantify drug induced dopaminergic neuron signal-mediated movement. In addition to the test sample (Group 1), control groups of no 6-OHDA, no hydrogel (Group 2, untreated control), 6-OHDA, no hydrogel (Group 3, drug control); 6-OHDA, blank hydrogel (Group 4, material control); and 6-OHDA, drug(s) without hydrogel (Group 5, delivery vehicle control) were assessed (minimum n=20 worms/group). L-DOPA was loaded in both SNP-CHO@CMCh and SNP-APBA@CMCh 25 w/v % hydrogels (DS=0.5) at 3 or 9 […].
# [2] = tested on: Sprague-Dawley rats, MK-801 model of schizophrenia; conditions: PAOPA 1 mg/kg IP, literature; cited from earlier work
# [3] = tested on: Sprague-Dawley rats, MK-801 model of schizophrenia; test: MK-801 schizophrenia model, social interaction behavioral testing; assay type: in vivo, rat
# Description: Age-matched male Sprague-Dawley rats (250-300 g, Charles River Canada, St. Constant, QC, Canada) received care that complied with protocols approved by the Animal Research Ethics Board at McMaster University and the guidelines of the Canadian Council on Animal Care. Animals were housed individually in standard cages on a reverse 12 h light cycle. Upon arrival, animals were habituated to their holding room for 1 week, followed by a week of handling (touching and petting for at least 5 minutes each, every other day) prior to any testing. Animals were handled regularly throughout the duration of all experimentation (2-3 times per week outside of experiments) and housed in a room maintained at 22° C. with 50% humidity and access to food and water ad libitum. The animal masses at the end of the experiments were between 400-550 g.
# For the in situ animal injections, all drugs were dissolved in artificial cerebrospinal fluid (aCSF) solution formulated in-lab comprised of 120 mM NaCl, 4.8 mM KCl, 1.2 mM KH2PO4, 1.2 mM MgSO4, 25 mM NaHCO3, 2.5 mM CaCl2), and 10 mM D-glucose. Further, PAOPA (with or without hydrogel formulation) was administered at concentration of 0.5 mg/kg intranasally, selected based on effective concentrations observed via dose-dependent intraperitoneal (IP) administrations. The PAOPA was added equally to both the CMCh and the SNP solutions and allowed to sit for 24 h to allow for any polymer-drug interactions to occur before gelation. All precursor solutions were passed through a 0.45 µm filter (VWR) to sterilize them prior to injection into a live animal. […]
# To administer the payload for the five experimental groups, a single rat was removed from its cage and placed into a closed anesthesia box with transparent sides for proper observation. Aerosolized isoflurane (with oxygen) was passed into the box until the rat was determined to be anesthetized via foot pinching reflex test. […]
# Rats were assessed for social interaction with and without MK-801 and drug/formulation administration. […]
# B16-F10 melanoma tumor = test: In vivo anti-tumor test (relative tumor volume); parameters: species or system C57BL/6 mice; conditions: 5.0 mg/kg DOX tail vein every three days, 10-day period
# Description: (§1) The antitumor effect of DOX, DOX-Clusters (control), and Dox-iClusters was evaluated by tracking the relative tumor volume (V/V0) after treatment with the nanocluster nanogels. C57BL/6 mice were injected intradermally with B16-F10 melanoma tumor cells, allowing the tumors to grow to ˜20 mm^3 by day 7 after the injections. The mice were treated by tail vein injection of 200 μL of PBS, DOX, DOX-iCluster and DOX-Cluster every three days (5.0 mg/kg of DOX for all formulations), after which both the tumor size and body weight were monitored regularly over a 10-day period.
# [4] = Body weight in the in vivo anti-tumor test; parameters: species or system C57BL/6 mice; conditions: 5.0 mg/kg DOX tail vein every three days, ten days
# Description: as §1
compound,measurement,setting,value
"N[C@@H](Cc1ccc(O)c(O)c1)C(=O)O [L-DOPA, 3,4-dihydroxy-L-phenylalanine]",L-DOPA oxidation (colour),[1],became black with oxidation
same,duration of improved swimming speed / motility vs 6-OHDA control,C. elegans,4 h
NC(=O)CN1CC[C@@H](NC(=O)[C@@H]2CCCN2)C1=O [PAOPA],social interaction time,[2],did not affect social interaction time
same,social interaction deficits,"[3]; 0.5 mg/kg IN 30 minutes before MK-801, assessed 30 minutes post-MK-801",expected attenuation of social interaction deficits
same,social interaction deficits,"[3]; 0.5 mg/kg IN, MK-801 challenge 24 hours later",the benefits of PAOPA were no longer observed
same,total social interaction time relative to untreated control,"[3]; no MK-801, intranasal, PAOPA 0.5 mg/kg or unloaded hydrogel",neither increased nor decreased total interaction times
"COc1cccc2c1C(=O)c1c(O)c3c(c(O)c1C2=O)C[C@@](O)(C(=O)CO)C[C@@H]3O[C@H]1C[C@H](N)[C@H](O)[C@H](C)O1.Cl [free DOX, doxorubicin hydrochloride]",relative tumor volume (V/V0),B16-F10 melanoma tumor,24 × volume increase
same,body weight,[4],significantly reduced body weight
